Test results from patent publication US20160052898A1, “NOVEL COMPOUNDS” (BAYER PHARMA AKTIENGESELLSCHAFT, priority 2013, published 2016).

Legend:
Type in all cases: cell-based
[1] = system: constitutive active colorectal cancer cell (CRC) Wnt pathway; test: HCT116 Super TopFlash cellular reporter assay (constitutive active Wnt pathway); details: Homo sapiens, HCT-116, 36 h, HCT116 TOP reporter cells, luciferase expression, 36 hours incubation, 50 μM to 15 nM
In short: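 HCT116 cells (β-catenin ΔS45) stably carrying Super TopFlash, with a parallel FOP-control line, were plated 24 h ahead. They were exposed 36 h at 37 °C, 5% CO2 to compound from a 50 μM–15 nM, 3.16-fold pre-dilution series in CAFTY buffer (pH 7.4, 2 mM Ca2+, 0.01% BSA). Wnt signalling was read as luciferase luminescence.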

[2] = system: HCT116 FOP control reporter cell line; test: HCT116 FOP control vector reporter assay (non-functional TCF elements); details: Homo sapiens, HCT-116, 36 h, HCT116 FOP control reporter cells, luciferase expression, 36 hours incubation, 50 μM to 15 nM; read-out: HCT116 FOPFlash IC50
In short: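 Stable HCT116 line carrying the non-functional FOP luciferase construct, 10000 cells/well plated 24 hrs before. Compounds 50 μM to 15 nM (3.16-fold steps) in CAFTY buffer pH 7.4 with 2 mM Ca2+, 36 hours at 37° C; luciferase luminescence read.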

[3] = system: wildtype Wnt pathway; test: HEK293 Super TopFlash cellular reporter assay, Wnt-3a stimulated (wildtype Wnt pathway); details: Homo sapiens; HEK293 TOP reporter cells, EC50 concentration of recombinant Wnt-3a, 16 hours incubation; read-out: HEK TOP OncoFlash IC50
Protocol: (§1) In order to determine the inhibitory activity of compounds for the WT Wnt signaling pathway, the Super TopFlash vector respectively FOP vector were cotransfected with pcDNA3 into HEK293 and stable transfected HEK293 cells were isolated by antibiotic selection. […] The recombinant human Wnt-3a was thereby used between 2500 and 5 ng/ml in two-fold dilution steps. […] Measurement of luciferase expression was done as described for the constitutive active Wnt assay.
In order to discover and characterize small molecules which inhibit the wildtype Wnt pathway, a cellular reporter assay was employed. The corresponding assay cell was generated by transfection of the mammalian cell line HEK293 (ATCC, #CRL-1573) with the Super TopFlash vector (Morin, Science 275, 1997, 1787-1790; Molenaar et al., Cell 86 (3), 1996, 391-399). The HEK293 cell line is cultivated at 37° C. and 5% CO2 in DMEM (Life Technologies, #41965-039), supplemented with 2 mM glutamine, 20 mM HEPES, 1.4 mM pyruvate, 0.15% Na-bicarbonate and 10% foetal bovine serum (GIBCO, #10270). Stable transfectants were generated by selection with 300 μg/ml Hygromycin.
(§2) In preparation of the assay, the two cell lines were plated 24 hours before beginning the test at 10000 cells per well in a 384 micro titre plate (MTP) in […] growth medium. […] The recombinant human Wnt-3a was thereby applied between 2500 and 5 ng/ml in two-fold dilution steps. Selective inhibitory activity for small molecules on the wildtype Wnt pathway was determined after parallel incubation of both (TOP and FOP) HEK293 reporter cell lines with a compound dilution series from 50 μM to 15 nM in steps of 3.16-fold dilutions in CAFTY buffer (130 mM NaCl, 5 mM KCl, 20 mM HEPES, 1 mM MgCl2, 5 mM NaHCO3, pH 7.4) containing 2 mM Ca^2+ and 0.01% BSA.
(§3) The compounds were thereby serially prediluted in 100% DMSO and thereafter 50 fold into the CAFTY compound dilution buffer (described above).

[4] = system: HEK293 FOP control reporter cell line; test: HEK293 FOP control vector reporter assay; details: Homo sapiens; HEK293 FOP control reporter cells, EC50 concentration of recombinant Wnt-3a, 16 hours incubation; read-out: HEK FOP IC50
Protocol: as §1
In a parallel approach, HEK293 cells were cotransfected with the FOP control vector and pcDNA3. The FOP vector is identical to the TOP construct, but it contains instead of functional TCF elements a randomized, non-functional sequence. For this transfection a stable transfected cell line was generated as well, based on selection with Geneticin (1 mg/ml).
as §2, §3

| SMILES | IC50 [1] [nM] | IC50 [2] [nM] | IC50 [3] [nM] | IC50 [4] [nM] |
| --- | --- | --- | --- | --- |
| O=C(CN1CCOCC1)Nc1cc(C(=O)Nc2ccc(-c3ccccc3)cc2)ccc1-c1ccco1 [Example 20, N-(biphenyl-4-yl)-4-(2-furyl)-3-[(morpholin-4-ylacetyl)amino]benzamide] | 62.5 | ≥ 50000 | 120 | ≥ 50000 |
| COc1ccc(NC(=O)c2ccc(-c3ccccc3)cc2)cc1NC(=O)CN1CCC(OC)CC1 [Example 39, N-(4-methoxy-3-{[(4-methoxypiperidin-1-yl)acetyl]amino}phenyl)biphenyl-4-carboxamide] | 2200 | ≥ 50000 | 1100 | ≥ 50000 |
| CC(C)(C(=O)Nc1cc(C(=O)Nc2ccc(-c3ccccc3)cc2)ccc1C(F)(F)F)N1CCOCC1 [Example 17, N-(biphenyl-4-yl)-3-{[2-methyl-2-(morpholin-4-yl)propanoyl]amino}-4-(trifluoromethyl)benzamide] | 240 | ≥ 50000 | 290 | 33000 |
| COc1ccc(NC(=O)c2ccc(-c3ccccc3)cc2)cc1NC(=O)CN1CCC[C@H](O)C1 [Example 40, N-[3-({[(3S)-3-hydroxypiperidin-1-yl]acetyl}amino)-4-methoxyphenyl]biphenyl-4-carboxamide] | 2300 | ≥ 50000 | 46 | 12000 |
| C[C@H](C(=O)Nc1cc(C(=O)Nc2ccc(-c3ccccc3)cc2)ccc1C(F)(F)F)N1CCOCC1 [Example 16, N-(biphenyl-4-yl)-3-{[(2R)-2-(morpholin-4-yl)propanoyl]amino}-4-(trifluoromethyl)benzamide] | 17.9 | ≥ 50000 | 26 | 7900 |
| COc1ccc(NC(=O)c2ccc(-c3ccccc3)cc2)cc1NC(=O)CN1CCOC[C@@H]1C [Example 48, N-[4-methoxy-3-({[(3S)-3-methylmorpholin-4-yl]acetyl}amino)phenyl]biphenyl-4-carboxamide] | 856 | 12000 | 2800 | ≥ 50000 |
| COc1ccc(C(=O)Nc2ccc(-c3ccccc3)cc2)cc1NC(=O)Cn1cccn1 [Example 2, N-(biphenyl-4-yl)-4-methoxy-3-[(1H-pyrazol-1-ylacetyl)amino]benzamide] | 3200 | ≥ 50000 | 1480 | 50000 |
| C[C@@H](C(=O)Nc1cc(NC(=O)c2ccc(-c3ccccc3)cc2)ccc1F)N1CCOCC1 [Example 30, N-(4-fluoro-3-{[(2S)-2-(morpholin-4-yl)propanoyl]amino}phenyl)biphenyl-4-carboxamide] | 1640 | ≥ 50000 | 920 | 9200 |
| CCOc1ccc(C(=O)Nc2ccc(-c3ccccc3)cc2)cc1NC(=O)CN1CCOCC1 [Example 26, N-(biphenyl-4-yl)-4-ethoxy-3-[(morpholin-4-ylacetyl)amino]benzamide] | 63.7 | ≥ 50000 | 970 | ≥ 50000 |
| C[C@@H](C(=O)Nc1cc(C(=O)Nc2ccc(-c3ccccc3)cc2)ccc1C(F)(F)F)N1CCOCC1 [Example 15, N-(biphenyl-4-yl)-3-{[(2S)-2-(morpholin-4-yl)propanoyl]amino}-4-(trifluoromethyl)benzamide] | 29.6 | 39500 | 100 | 4000 |
| O=C(CN1CCOCC1)Nc1cc(C(=O)Nc2ccc(-c3ccccc3)cc2)ccc1Br [Example 13, N-(biphenyl-4-yl)-4-bromo-3-[(morpholin-4-ylacetyl)amino]benzamide] | 91 | ≥ 50000 | 500 | 12000 |
| COC(=O)c1ccc(C(=O)Nc2ccc(-c3ccccc3)cc2)cc1NC(=O)CN1CCOCC1 [Example 12, methyl 4-(biphenyl-4-ylcarbamoyl)-2-[(morpholin-4-ylacetyl)amino]benzoate] | 40 | ≥ 50000 | 440 | ≥ 50000 |
| CC(C(=O)Nc1cc(NC(=O)c2ccc(-c3ccccc3)cc2)ccc1OC(F)(F)F)N1CC2CCC(C1)O2 (stereo not shown) [Example 58, N-[3-{[2-(8-oxa-3-azabicyclo[3.2.1]oct-3-yl)propanoyl]amino}-4-(trifluoromethoxy)phenyl]biphenyl-4-carboxamide] | 54 | ≥ 50000 | 2200 | 35000 |

The next lines start with results.

| IC50 [1] [nM] | IC50 [2] [nM] | IC50 [3] [nM] | SMILES | IC50 [4] [nM] |
| --- | --- | --- | --- | --- |
| 1450 | ≥ 50000 | 1500 | COc1ccc(NC(=O)c2ccc(-c3cccc(Cl)c3)cc2)cc1NC(=O)CN1CCOCC1 [Example 73, 3′-chloro-N-{4-methoxy-3-[(morpholin-4-ylacetyl)amino]phenyl}biphenyl-4-carboxamide] | 32000 |
| 24.2 | ≥ 50000 | 250 | O=C(Nc1ccc(-c2ccccc2)cc1)c1ccc(Cl)c(NC(=O)C2(N3CCOCC3)CC2)c1 [Example 97, N-(biphenyl-4-yl)-4-chloro-3-({[1-(morpholin-4-yl)cyclopropyl]carbonyl}amino)benzamide] | ≥ 50000 |
| 44.8 | ≥ 50000 | 93 | O=C(Nc1ccc(-c2ccccc2)cc1)c1ccc(OCc2ccccc2)c(NC(=O)C2(N3CCOCC3)CC2)c1 [Example 88, 4-(benzyloxy)-N-(biphenyl-4-yl)-3-({[1-(morpholin-4-yl)cyclopropyl]carbonyl}amino)benzamide] | ≥ 50000 |
| 130 | ≥ 50000 | 140 | CC(C(=O)Nc1cc(NC(=O)c2ccc(-c3ccccc3)cc2)ccc1OC(F)(F)F)N1CCOCC1 (stereo not shown) [Example 61, N-[3-{[2-(morpholin-4-yl)propanoyl]amino}-4-(trifluoromethoxy)phenyl]biphenyl-4-carboxamide] | ≥ 50000 |
| 38.5 | 21000 | 310 | O=C(CN1CCOCC1)Nc1cc(C(=O)Nc2ccc(-c3ccccc3)cc2)ccc1C(=O)NC1CC1 [Example 107, N^4-(biphenyl-4-yl)-N^1-cyclopropyl-2-[(morpholin-4-ylacetyl)amino]terephthalamide] | 36000 |
| 290 | ≥ 50000 | 320 | COc1ccc(NC(=O)c2ccc(-c3cccc(F)c3)cc2)cc1NC(=O)CN1CCOCC1 [Example 81, 3′-fluoro-N-{4-methoxy-3-[(morpholin-4-ylacetyl)amino]phenyl}biphenyl-4-carboxamide] | 9800 |
| 47 | ≥ 50000 | 140 | O=C(CN1CCOCC1)Nc1cc(NC(=O)c2ccc(-c3cccc(F)c3)cc2)ccc1OC(F)(F)F [Example 74, 3′-fluoro-N-{3-[(morpholin-4-ylacetyl)amino]-4-(trifluoromethoxy)phenyl}biphenyl-4-carboxamide] | 8300 |
| 44.5 | 43500 | 15.6 | COCCCNC(=O)c1ccc(C(=O)Nc2ccc(-c3ccccc3)cc2)cc1NC(=O)CN1CCOCC1 [Example 108, N^4-(biphenyl-4-yl)-N^1-(3-methoxypropyl)-2-[(morpholin-4-ylacetyl)amino]terephthalamide] | ≥ 50000 |
| 325 | ≥ 50000 | 1700 | COc1ccc(NC(=O)c2ccc(-c3ccccc3F)cc2)cc1NC(=O)CN1CCOCC1 [Example 82, 2′-fluoro-N-{4-methoxy-3-[(morpholin-4-ylacetyl)amino]phenyl}biphenyl-4-carboxamide] | ≥ 50000 |
